From paper PMC8552062, “Contributions of UDP-Glucuronosyltransferases to Human Hepatic and Intestinal Metabolism of Ticagrelor and Inhibition of UGTs and Cytochrome P450 Enzymes by Ticagrelor and its Glucuronidated Metabolite” (Frontiers in Pharmacology, 2021)
Several values for one entry are separate records, joined by “and”; a condition that tells them apart may be missing. Equal entries are not always repeated.

Key:
Format in all cases: in vitro ADME
CYP2D6 = target: T1, CYP2D6 (Homo sapiens, UniProt P10635); experiment: CYP2D6 inhibition in HLM (dextromethorphan O-demethylase); settings: HLM 0.2 mg/ml
T1 construct: co-incubation ticagrelor-O-Glu with selective P450 probe substrates in HLM; tissue XenoTech LLC; host or cells: pooled human liver microsomes
Experimental: The potential inhibitory effects of ticagrelor-O-Glu on the activities of major CYPs, i.e., CYP2B6, CYP2C8, CYP2C9, CYP2C19, CYP2D6, and CYP3A4, were evaluated by co-incubation ticagrelor-O-Glu with selective P450 probe substrates in HLM. Each incubation mixture containing 0.2 mg/ml HLM, ticagrelor-O-Glu and respective substrate (the final substrate concentrations are close to or less than the Km values: 150 μM bupropion, 1.26 μM amodiaquine, 10 μM diclofenac, 20 μM mephenytoin, 20 μM dextromethorphan and 80 μM testosterone (in house data)) in potassium phosphate buffer (100 mM, pH 7.4) was pre-incubated at 37°C for 5 min. Then, NADPH (10 mM) was added to initiate the reaction. The final volume of the incubation mixture was 100 μl. After incubation at 37°C for specific time points, the reaction was terminated by the addition of 200 μl of ice-cold methanol solution with internal standards (diazepam and furafylline). […] The formation of respective metabolites was determined to reflect P450 isoform activities. The metabolites quantified for CYP2B6, CYP2C8, CYP2C9, CYP2C19, CYP2D6, and CYP3A4 were hydroxy bupropion, N-Desethyl amodiaquine, 4′-hydroxylation diclofenac, S-4-hydroxy mephenytoin, dextrorphan and 6β-hydroxy testosterone, respectively.
(§1) The percent inhibition relative to the control was calculated to indicate the UGTs or CYPs inhibition. […]

CYP2B6 = target: T2, CYP2B6 (Homo sapiens, UniProt P20813); experiment: CYP2B6 inhibition in HLM (bupropion hydroxylase)
T2 construct: co-incubation ticagrelor-O-Glu with selective P450 probe substrates in HLM; tissue XenoTech LLC; host or cells: pooled human liver microsomes
T2 sequence (P20813 1-491): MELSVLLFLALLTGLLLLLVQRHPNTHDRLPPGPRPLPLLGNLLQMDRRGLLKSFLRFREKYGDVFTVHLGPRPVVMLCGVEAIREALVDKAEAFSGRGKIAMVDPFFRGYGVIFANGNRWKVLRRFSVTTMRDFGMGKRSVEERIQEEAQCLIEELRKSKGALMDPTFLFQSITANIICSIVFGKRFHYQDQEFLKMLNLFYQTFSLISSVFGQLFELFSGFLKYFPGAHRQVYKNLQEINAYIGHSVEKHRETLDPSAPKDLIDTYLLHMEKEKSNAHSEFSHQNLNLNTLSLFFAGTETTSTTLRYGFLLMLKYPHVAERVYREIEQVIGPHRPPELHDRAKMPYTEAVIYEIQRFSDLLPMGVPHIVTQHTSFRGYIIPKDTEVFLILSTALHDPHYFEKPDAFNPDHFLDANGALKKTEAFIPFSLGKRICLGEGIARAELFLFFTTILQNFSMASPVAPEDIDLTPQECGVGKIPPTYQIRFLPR
Experimental: The potential inhibitory effects of ticagrelor-O-Glu on the activities of major CYPs, i.e., CYP2B6, CYP2C8, CYP2C9, CYP2C19, CYP2D6, and CYP3A4, were evaluated by co-incubation ticagrelor-O-Glu with selective P450 probe substrates in HLM. Each incubation mixture containing 0.2 mg/ml HLM, ticagrelor-O-Glu and respective substrate (the final substrate concentrations are close to or less than the Km values: 150 μM bupropion, 1.26 μM amodiaquine, 10 μM diclofenac, 20 μM mephenytoin, 20 μM dextromethorphan and 80 μM testosterone (in house data)) in potassium phosphate buffer (100 mM, pH 7.4) was pre-incubated at 37°C for 5 min. Then, NADPH (10 mM) was added to initiate the reaction. The final volume of the incubation mixture was 100 μl. After incubation at 37°C for specific time points, the reaction was terminated by the addition of 200 μl of ice-cold methanol solution with internal standards (diazepam and furafylline). Preliminary screening experiments with selected concentrations of ticagrelor-O-Glu (0, 1, 10, or 100 μM of the final concentration) were carried out to determine the inhibition potency. For those that produced approximately 50% inhibition of CYPs enzyme activities at a ticagrelor-O-Glu concentration between 1 and 100 μM, IC50 was further determined with various concentrations of ticagrelor-O-Glu (0, 1, 5, 10, 20, 50, and 100 μM). All the experiments were performed in triplicates. The supernatant was obtained after centrifugation at 14,000 rpm for 10 min and injected into LC-MS/MS for the analysis of the respective metabolites. The formation of respective metabolites was determined to reflect P450 isoform activities. The metabolites quantified for CYP2B6, CYP2C8, CYP2C9, CYP2C19, CYP2D6, and CYP3A4 were hydroxy bupropion, N-Desethyl amodiaquine, 4′-hydroxylation diclofenac, S-4-hydroxy mephenytoin, dextrorphan and 6β-hydroxy testosterone, respectively.
as §1

recombinant human UGT2B4 = target: T3, recombinant human UGT2B4 (Homo sapiens, UniProt P06133); experiment: Ticagrelor glucuronidation screen, recombinant human UGT2B4; settings: 10 μM ticagrelor
T3 construct: purchased BD Gentest; host or cells: baculovirus-infected insect cells
Experimental: Ticagrelor glucuronidation was investigated in an in vitro incubation system by using HLM, HIM, and recombinant human UGTs. The incubation system consisted of enzyme sources (HLM, HIM, or human recombinant UGTs), various concentrations of ticagrelor (dissolved in 50% methanol, 1% v/v, 1, 2, 5, 10, 20, 50, 100, 200, 500 μM of final concentration), alamethicin (50 μg/mg protein), 5 mM MgCl2, 100 mM tris-HCL buffer (pH 7.4), and 5 mM UDPGA in a total volume of 100 μl. Alamethicin is a pore-forming polypeptide used to activate UGTs in HLM and HIM ([Fisher et al., 2000]). Preliminary studies were conducted to determine the optimal protein concentrations and incubation times. Linear conditions of ticagrelor-O-Glu formation from ticagrelor, i.e., HLM, 0.2 mg of protein/ml and 60 min, HIM, 0.2 mg of protein/ml and 60 min, and recombinant human UGTs, 0.2 mg of protein/ml and 60 min were selected. The incubation mixture without UDPGA was placed on ice for 15 min to activate UGT by alamethicin. After pre-incubation for 5 min at 37°C, the reactions were started by the addition of UDPGA. After another 60 min of incubation at 37°C, the reaction was terminated by adding 100 μl of acetonitrile containing internal standard (diazepam). The mixture vortexed for 2 min and then centrifuged at 14,000 rpm for 10 min at 4°C. […]

[1] = system: human liver microsomes (HLM); experiment: Ticagrelor glucuronidation kinetics in pooled HLM
Experimental: Ticagrelor glucuronidation was investigated in an in vitro incubation system by using HLM, HIM, and recombinant human UGTs. The incubation system consisted of enzyme sources (HLM, HIM, or human recombinant UGTs), various concentrations of ticagrelor (dissolved in 50% methanol, 1% v/v, 1, 2, 5, 10, 20, 50, 100, 200, 500 μM of final concentration), alamethicin (50 μg/mg protein), 5 mM MgCl2, 100 mM tris-HCL buffer (pH 7.4), and 5 mM UDPGA in a total volume of 100 μl. Alamethicin is a pore-forming polypeptide used to activate UGTs in HLM and HIM ([Fisher et al., 2000]). Preliminary studies were conducted to determine the optimal protein concentrations and incubation times. Linear conditions of ticagrelor-O-Glu formation from ticagrelor, i.e., HLM, 0.2 mg of protein/ml and 60 min, HIM, 0.2 mg of protein/ml and 60 min, and recombinant human UGTs, 0.2 mg of protein/ml and 60 min were selected. The incubation mixture without UDPGA was placed on ice for 15 min to activate UGT by alamethicin. After pre-incubation for 5 min at 37°C, the reactions were started by the addition of UDPGA. After another 60 min of incubation at 37°C, the reaction was terminated by adding 100 μl of acetonitrile containing internal standard (diazepam). The mixture vortexed for 2 min and then centrifuged at 14,000 rpm for 10 min at 4°C. The resulting supernatant was injected into a liquid chromatography tandem mass spectrometry (LC-MS/MS, Applied Biosystems/MDS Sciex, Foster City, CA) system for the detection of ticagrelor-O-Glu.
Kinetic analyses were performed using the mean values of triplicate determinations with either pooled HLM, HIM, or recombinant human UGTs. All data were analyzed by nonlinear regression analysis using the GraphPad Prism 6 (GraphPad Software Inc., CA, United States). Michaelis-Menten kinetics (Eq. 1) or substrate inhibition kinetics (Eq. 2) ([Houston and Kenworthy, 2000]) were tested to determine the optimal model for describing the data. […] Intrinsic clearance (CLint) was calculated by dividing Vmax by Km.

T3 sequence (P06133 24-528): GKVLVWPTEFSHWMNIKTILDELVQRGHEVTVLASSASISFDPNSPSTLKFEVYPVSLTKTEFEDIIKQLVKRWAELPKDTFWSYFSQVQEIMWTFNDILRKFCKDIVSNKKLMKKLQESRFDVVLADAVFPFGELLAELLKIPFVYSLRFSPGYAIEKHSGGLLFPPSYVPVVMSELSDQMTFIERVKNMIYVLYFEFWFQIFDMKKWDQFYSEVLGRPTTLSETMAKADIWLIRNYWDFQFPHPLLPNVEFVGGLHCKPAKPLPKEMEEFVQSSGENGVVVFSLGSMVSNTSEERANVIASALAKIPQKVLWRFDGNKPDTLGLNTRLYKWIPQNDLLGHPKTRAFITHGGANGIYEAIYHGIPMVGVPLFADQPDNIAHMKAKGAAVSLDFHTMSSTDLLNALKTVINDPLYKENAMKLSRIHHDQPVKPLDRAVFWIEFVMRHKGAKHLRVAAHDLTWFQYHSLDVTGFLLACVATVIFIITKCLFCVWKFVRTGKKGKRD
T1 sequence (P10635 whole entry): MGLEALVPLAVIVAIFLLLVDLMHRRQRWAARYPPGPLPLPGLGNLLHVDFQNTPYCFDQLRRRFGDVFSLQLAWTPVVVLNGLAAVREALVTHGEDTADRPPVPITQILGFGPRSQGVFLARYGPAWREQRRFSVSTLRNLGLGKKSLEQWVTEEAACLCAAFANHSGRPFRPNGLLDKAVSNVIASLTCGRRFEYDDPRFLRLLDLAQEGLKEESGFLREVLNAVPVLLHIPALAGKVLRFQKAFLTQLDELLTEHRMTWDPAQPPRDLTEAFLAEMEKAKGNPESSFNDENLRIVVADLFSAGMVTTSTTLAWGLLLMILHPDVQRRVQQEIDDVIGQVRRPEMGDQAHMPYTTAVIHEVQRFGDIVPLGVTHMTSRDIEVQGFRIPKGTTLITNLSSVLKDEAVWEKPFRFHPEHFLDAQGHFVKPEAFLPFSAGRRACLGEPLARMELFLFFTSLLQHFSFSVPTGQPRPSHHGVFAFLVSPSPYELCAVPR

Compound	IC50 (CYP2D6)	IC50 (CYP2B6; CYP2B6, bupropion hydroxylase, HLM 0.2 mg/ml)	inhibition at 10 μM (CYP2B6; human, human liver microsomes, pH 7.4, probe bupropion (150 μM), hydroxy bupropion formation, HLM, 10 μM ticagrelor-O-Glu)	inhibition at 100 µM (CYP2B6; human, human liver microsomes, pH 7.4, probe bupropion (150 μM), hydroxy bupropion formation, HLM, 100 μM ticagrelor-O-Glu)	glucuronidation activity for ticagrelor (recombinant human UGT2B4)	Ksi ([1]; pooled HLM)	Vmax ([1]; pooled HLM)	Km ([1]; pooled HLM 0.2 mg protein/ml, 60 min, substrate inhibition kinetics)
CCCSc1nc(N[C@@H]2C[C@H]2c2ccc(F)c(F)c2)c2nnn([C@@H]3C[C@H](OCCO[C@@H]4O[C@H](C(=O)O)[C@@H](O)[C@H](O)[C@H]4O)[C@@H](O)[C@H]3O)c2n1 [Ticagrelor-O-Glu, ticagrelor-O-glucuronide]	> 100 µM	45 µM	19.1%	77.9%				
CCCSc1nc(N[C@@H]2C[C@H]2c2ccc(F)c(F)c2)c2nnn([C@@H]3C[C@H](OCCO)[C@@H](O)[C@H]3O)c2n1 [Ticagrelor]					no glucuronidation activities	1,343 μM and 1,343.0 μM	8.03 pmol·min^−1·mg protein^−1	5.65 µM
